Data from article PMC5777153 (Cell chemical biology, 2017).

System: human kinome
Test: KinomeScan competitive binding assay across the kinome
Conditions: 10 μM

COc1cc2c(Oc3ccc(NC(=O)C4(C(=O)Nc5ccc(F)cc5)CC4)cc3F)ccnc2cc1OCCCN1CCOCC1 [foretinib]
number of kinases bound (percent of control value of 35 or less): 133 kinases
